Measured values from paper PMC8632988, “Inhibition of SYK and cSrc kinases can protect bone and cartilage in preclinical models of osteoarthritis and rheumatoid arthritis” (Scientific Reports, 2021).
Values joined by “and” are separate entries in the source; they are usually repeats but may differ in a detail not shown here. Equal entries are not always repeated.

Tested on: DBA/1 mice, CIA model
Test: Collagen-induced arthritis model in mice
Type: in vivo, mouse
Conditions: BID
Experimental: Collagen-induced arthritis (CIA) model was performed at Bolder BioPATH, USA. Study design and animal usage was approved by Bolder BioPATH’s Institutional Animal Care and Use Committee. CIA was induced in 6–7 week old male DBA/1 mice with body weight of 15–26 g (Harlan, Inc) by intradermal injection of Freund’s Complete Adjuvant (Difco) containing bovine type II collagen (Bolder BioPATH) on day 0 and again on day 21 according to the standard protocol. […] After that mice were randomized into six groups: a control group of four, vehicle group and four treatment groups of ten mice each. […] Each paw was scored daily for inflammation. Therapeutic and prophylactic paws were considered. At study termination mice were euthanized by CO2 inhalation followed by cervical dislocation. Fore paws, hind paws, and knees were removed for microscopy.
Mice were weighed on arthritis days 1, 3, 5, 7, 9, and 11 (prior to necropsy). Daily clinical scores were given for each of the paws (right front, left front, right rear, left rear) on days 1–11 using the following criteria:
After 1–2 days in fixative and 4–5 days in 5% formic acid for decalcification, tissues were trimmed, processed for paraffin embedding, sectioned at 8 µm and stained with toluidine blue. Hind paws and knees were embedded and sectioned in the frontal plane. Two joints from each animal were processed for histopathology evaluation. The joints were then scored by two independent readers as indicated below. When scoring, severity of changes as well as number of individual joints affected were considered. When only 1–3 joints of the paws or ankles out of a possibility of numerous metacarpal/metatarsal/digit or tarsal/tibiotarsal joints were affected, an arbitrary assignment of a maximum score of 1, 2 or 3 for parameters below was given depending on severity of changes. If more than 3 joints were involved, the criteria below were applied to the most severely affected/majority of joints.

COc1cc(Nc2ncnc(Nc3cc4c(cn3)NC(=O)C(C)(C)O4)n2)cc(OC)c1OC [MT-SYK-03]
% inhibition to Vehicle, Paw Score Total AUC Sum (d1-11) (103 mg/kg PO): 12% | Paw Score Total AUC Sum (d1-11) (103 mg/kg PO, group Mean): 28.48 | Paw Score Total AUC Sum (d1-11) (103 mg/kg PO, individual animals): 27.25 and 32.38 and 26.00 and 35.88 and 12.50 and 29.00 and 37.38 and 33.00 and 33.88 and 17.50 | % inhibition to Vehicle, Average Paw Score (Day 1, 103 mg/kg PO): 0% | Average Paw Score Per Arthritis Day (All Paws) (Day 1, 103 mg/kg PO, group Mean): 0.80 | Average Paw Score Per Arthritis Day (All Paws) (Day 1, 103 mg/kg PO, individual animals, 103 mg/kg): 0.50 and 1.50 and 1.00 | % inhibition to Vehicle, Average Paw Score (Day 2, 103 mg/kg PO): 18% | Average Paw Score Per Arthritis Day (All Paws) (Day 2, 103 mg/kg PO, group Mean): 1.50 | Average Paw Score Per Arthritis Day (All Paws) (Day 2, 103 mg/kg PO, individual animals, 103 mg/kg): 1.25 and 2.00 and 1.00 and 2.50 and 1.50 and 0.50 | % inhibition to Vehicle, Average Paw Score (Day 3, 103 mg/kg PO): 15% | Average Paw Score Per Arthritis Day (All Paws) (Day 3, 103 mg/kg PO, group Mean): 2.25 | Average Paw Score Per Arthritis Day (All Paws) (Day 3, 103 mg/kg PO, individual animals, 103 mg/kg): 2.25 and 3.00 and 1.25 and 3.25 and 2.00 and 2.75 and 2.50 | % inhibition to Vehicle, Average Paw Score (Day 4, 103 mg/kg PO): 13% | Average Paw Score Per Arthritis Day (All Paws) (Day 4, 103 mg/kg PO, group Mean): 2.75 | Average Paw Score Per Arthritis Day (All Paws) (Day 4, 103 mg/kg PO, individual animals, 103 mg/kg): 2.75 and 3.25 and 2.00 and 3.50 and 1.25 and 3.00 | % inhibition to Vehicle, Average Paw Score (Day 5, 103 mg/kg PO): 12% | Average Paw Score Per Arthritis Day (All Paws) (Day 5, 103 mg/kg PO, group Mean): 3.08 | Average Paw Score Per Arthritis Day (All Paws) (Day 5, 103 mg/kg PO, individual animals, 103 mg/kg): 3.00 and 3.50 and 2.75 and 3.75 and 1.25 and 4.00 and 2.00 | % inhibition to Vehicle, Average Paw Score (Day 6, 103 mg/kg PO): 11% | Average Paw Score Per Arthritis Day (All Paws) (Day 6, 103 mg/kg PO, group Mean): 3.18 | Average Paw Score Per Arthritis Day (All Paws) (Day 6, 103 mg/kg PO, individual animals, 103 mg/kg): 3.00 and 3.50 and 3.75 and 1.25 and 4.00 and 2.25 | % inhibition to Vehicle, Average Paw Score (Day 7, 103 mg/kg PO): 10% | Average Paw Score Per Arthritis Day (All Paws) (Day 7, 103 mg/kg PO, group Mean): 3.28 | Average Paw Score Per Arthritis Day (All Paws) (Day 7, 103 mg/kg PO, individual animals, 103 mg/kg): 3.00 and 3.50 and 3.25 and 4.00 and 1.25 and 4.25 and 3.75 and 2.25 | % inhibition to Vehicle, Average Paw Score (Day 8, 103 mg/kg PO): 12% | Average Paw Score Per Arthritis Day (All Paws) (Day 8, 103 mg/kg PO, group Mean): 3.33 | Average Paw Score Per Arthritis Day (All Paws) (Day 8, 103 mg/kg PO, individual animals, 103 mg/kg): 3.25 and 3.50 and 4.00 and 1.25 and 4.50 and 3.75 and 4.25 and 2.00 | % inhibition to Vehicle, Average Paw Score (Day 9, 103 mg/kg PO): 13% | Average Paw Score Per Arthritis Day (All Paws) (Day 9, 103 mg/kg PO, group Mean): 3.43 | Average Paw Score Per Arthritis Day (All Paws) (Day 9, 103 mg/kg PO, individual animals, 103 mg/kg): 3.25 and 3.75 and 3.50 and 4.25 and 1.50 and 4.50 and 2.00 | % inhibition to Vehicle, Average Paw Score (Day 10, 103 mg/kg PO): 13% | Average Paw Score Per Arthritis Day (All Paws) (Day 10, 103 mg/kg PO, group Mean): 3.53 | Average Paw Score Per Arthritis Day (All Paws) (Day 10, 103 mg/kg PO, individual animals, 103 mg/kg): 3.50 and 3.75 and 4.25 and 1.50 and 4.75 and 4.00 and 2.00 | % inhibition to Vehicle, Average Paw Score (Day 11, 103 mg/kg PO): 12% | Average Paw Score Per Arthritis Day (All Paws) (Day 11, 103 mg/kg PO, group Mean): 3.55 | Average Paw Score Per Arthritis Day (All Paws) (Day 11, 103 mg/kg PO, individual animals, 103 mg/kg): 3.50 and 3.75 and 4.00 and 4.25 and 1.50 and 4.75 and 2.00 | % inhibition to Vehicle, Total AUC Sum (d1-11) (MT-SYK-03 103 mg/kg PO): 18% | Summed Prophylactic (Non-Enrollment) Paw Score (MT-SYK-03 103 mg/kg PO, Day 1, group mean): 0.00 | Summed Prophylactic (Non-Enrollment) Paw Score (MT-SYK-03 103 mg/kg PO, Day 1, individual animals): 0 | % inhibition to Vehicle, Summed Prophylactic (Non-Enrollment) Paw Score (MT-SYK-03 103 mg/kg PO, Day 2): 15% | Summed Prophylactic (Non-Enrollment) Paw Score (MT-SYK-03 103 mg/kg PO, Day 2, group mean): 2.20 | Summed Prophylactic (Non-Enrollment) Paw Score (MT-SYK-03 103 mg/kg PO, Day 2, individual animals, 103 mg/kg): 2 and 4 and 1 and 3 and 0 | % inhibition to Vehicle, Summed Prophylactic (Non-Enrollment) Paw Score (MT-SYK-03 103 mg/kg PO, Day 3): 23% | Summed Prophylactic (Non-Enrollment) Paw Score (MT-SYK-03 103 mg/kg PO, Day 3, group mean): 3.60 | Summed Prophylactic (Non-Enrollment) Paw Score (MT-SYK-03 103 mg/kg PO, Day 3, individual animals, 103 mg/kg): 5 and 3 and 2 and 1 and 6 and 4 | % inhibition to Vehicle, Summed Prophylactic (Non-Enrollment) Paw Score (MT-SYK-03 103 mg/kg PO, Day 4): 19% | Summed Prophylactic (Non-Enrollment) Paw Score (MT-SYK-03 103 mg/kg PO, Day 4, group mean): 5.20 | Summed Prophylactic (Non-Enrollment) Paw Score (MT-SYK-03 103 mg/kg PO, Day 4, individual animals, 103 mg/kg): 7 and 3 and 5 and 6 and 1 and 4 | % inhibition to Vehicle, Summed Prophylactic (Non-Enrollment) Paw Score (MT-SYK-03 103 mg/kg PO, Day 5): 16% | Summed Prophylactic (Non-Enrollment) Paw Score (MT-SYK-03 103 mg/kg PO, Day 5, group mean): 6.10 | Summed Prophylactic (Non-Enrollment) Paw Score (MT-SYK-03 103 mg/kg PO, Day 5, individual animals, 103 mg/kg): 8 and 3 and 6 and 1 and 10 and 7 and 4 | % inhibition to Vehicle, Summed Prophylactic (Non-Enrollment) Paw Score (MT-SYK-03 103 mg/kg PO, Day 6): 16% | Summed Prophylactic (Non-Enrollment) Paw Score (MT-SYK-03 103 mg/kg PO, Day 6, group mean): 6.40 | Summed Prophylactic (Non-Enrollment) Paw Score (MT-SYK-03 103 mg/kg PO, Day 6, individual animals, 103 mg/kg): 8 and 3 and 9 and 6 and 1 and 10 and 5 | % inhibition to Vehicle, Summed Prophylactic (Non-Enrollment) Paw Score (MT-SYK-03 103 mg/kg PO, Day 7): 17% | Summed Prophylactic (Non-Enrollment) Paw Score (MT-SYK-03 103 mg/kg PO, Day 7, group mean): 6.50 | Summed Prophylactic (Non-Enrollment) Paw Score (MT-SYK-03 103 mg/kg PO, Day 7, individual animals, 103 mg/kg): 8 and 3 and 9 and 7 and 1 and 10 and 6 and 5 | % inhibition to Vehicle, Summed Prophylactic (Non-Enrollment) Paw Score (MT-SYK-03 103 mg/kg PO, Day 8): 20% | Summed Prophylactic (Non-Enrollment) Paw Score (MT-SYK-03 103 mg/kg PO, Day 8, group mean): 6.50 | Summed Prophylactic (Non-Enrollment) Paw Score (MT-SYK-03 103 mg/kg PO, Day 8, individual animals, 103 mg/kg): 8 and 3 and 9 and 7 and 1 and 10 and 6 and 5 | % inhibition to Vehicle, Summed Prophylactic (Non-Enrollment) Paw Score (MT-SYK-03 103 mg/kg PO, Day 9): 20% | Summed Prophylactic (Non-Enrollment) Paw Score (MT-SYK-03 103 mg/kg PO, Day 9, group mean): 6.80 | Summed Prophylactic (Non-Enrollment) Paw Score (MT-SYK-03 103 mg/kg PO, Day 9, individual animals, 103 mg/kg): 8 and 3 and 10 and 2 and 6 and 5 | % inhibition to Vehicle, Summed Prophylactic (Non-Enrollment) Paw Score (MT-SYK-03 103 mg/kg PO, Day 10): 18% | Summed Prophylactic (Non-Enrollment) Paw Score (MT-SYK-03 103 mg/kg PO, Day 10, group mean): 7.20 | Summed Prophylactic (Non-Enrollment) Paw Score (MT-SYK-03 103 mg/kg PO, Day 10, individual animals, 103 mg/kg): 9 and 3 and 11 and 8 and 2 and 10 and 7 and 5
